# Results: the Deep4Chem optical property database
# Values joined by “and” are separate entries in the source; they are usually repeats but may differ in a detail not shown here. Equal entries are not always repeated.
# Test: solvent given as SMILES
compound,measurement,setting,value
CC1=C2C=CC(C)=[N+]2[B-](F)(F)n2cccc21,absorption maximum,in CCCCCC,499 nm
same,absorption maximum,in CO,494 nm
same,absorption maximum,in ClCCl,498 nm
c1ccc(-c2ccc3c4ccc(-c5ccccc5)c5c(-c6ccccc6)ccc(c6ccc(-c7ccccc7)c2c36)c54)cc1,absorption maximum,in ClCCl,486 nm
CCCCCCn1c2ccccc2c2cc(-c3ccc(-c4cc(-c5ccccn5)nc(-c5ccccn5)c4)cc3)ccc21,absorption maximum,in ClCCl,296 nm
c1ccc(B2Nc3cc4c(cc3-c3sccc32)NB(c2ccccc2)c2ccsc2-4)cc1,absorption maximum,in ClCCl,405 nm
Cc1c(COC(=O)Cc2c[nH]c3ccccc23)n2c(OCC(=O)Cc3c[nH]c4ccccc34)c(C)c(=O)n2c1=O,absorption maximum,in CCO,382 nm
CCOC(=O)c1cc(C(=O)OCC)c2cc(N(CC)CC)ccc2n1,absorption maximum,in CCO,453 nm
N#C/C(=C\c1ccc(Cl)cc1)c1nc(-c2ccccc2)cs1,absorption maximum,in CC#N,364 nm
Cc1nnc(-c2ccc(-n3c4ccccc4c4ccccc43)cc2)o1,absorption maximum,in Cc1ccccc1,340 nm
O=CN1N=C(c2ccc(Br)cc2)C[C@@H]1c1ccccc1,absorption maximum,in C1CCCCC1,305 nm
same,absorption maximum,in C1COCCO1,303 nm
same,absorption maximum,in CC#N,298 nm
same,absorption maximum,in CCO,297 nm
same,absorption maximum,in CCOC(C)=O,301 nm
same,absorption maximum,in CO,298 nm
same,absorption maximum,in CS(C)=O,302 nm
same,absorption maximum,in Cc1ccccc1,306 nm
same,absorption maximum,in ClC(Cl)(Cl)Cl,306 nm
CC(C)(C)c1ccc2c(c1)c1cc(C(C)(C)C)ccc1n2-c1ccc(N(c2ccc(-c3ccc(-c4ccc(-c5ccc(N(c6ccc(-n7c8ccc(C(C)(C)C)cc8c8cc(C(C)(C)C)ccc87)cc6)c6ccc(-n7c8ccc(C(C)(C)C)cc8c8cc(C(C)(C)C)ccc87)cc6)cc5)s4)s3)cc2)c2ccc(-n3c4ccc(C(C)(C)C)cc4c4cc(C(C)(C)C)ccc43)cc2)cc1,absorption maximum,in ClCCl,418 nm
C(#Cc1ccccc1)C(C#Cc1ccccc1)=Cc1c2ccccc2c(C=C(C#Cc2ccccc2)C#Cc2ccccc2)c2ccccc12,absorption maximum,in ClC(Cl)Cl,432 nm
CC1(C)C(/C=C/C2=C(c3ccc(C(=O)O)cc3)C(=C/C=C3/N(CCCCS(=O)(=O)[O-])c4ccc(S(=O)(=O)[O-])cc4C3(C)C)/CCC2)=[N+](CCCCS(=O)(=O)[O-])c2ccc(S(=O)(=O)[O-])cc21,absorption maximum,in CO,770 nm
COc1ccc2cc(/C=C/C3=[O+][B-](F)(F)OC(/C=C/c4ccc5cc(OC)ccc5c4)=C3c3ccccc3)ccc2c1,absorption maximum,in ClCCl,526 nm
CC(C)n1c(=O)c2cc3ccc4cccc5ccc(c2c1=O)c3c45,absorption maximum,in ClC(Cl)Cl,427 nm
COc1cc2c(cc1-c1ccncc1)Cc1c3c(c4c(c1-2)-c1cc(OC)c(-c2ccncc2)cc1C4)C(=O)N(CCC(C)C)C3=O,absorption maximum,in C1CCOC1,407 nm
N#Cc1nn(-c2ccccc2C(F)(F)F)nc1N1CCCC1,absorption maximum,in CC#N,326 nm
N#Cc1c(N2CCCCC2)cc(-c2ccccc2)c2c1-c1ccccc1C2,absorption maximum,in C1CCOC1,360 nm
CN(C)c1ccc(/C=C/C=C2\CC/C(=C\c3ccc(N(C)C)cc3)C2=O)cc1,absorption maximum,in C1CCOC1,479 nm
same,absorption maximum,in CC#N,478 nm
same,absorption maximum,in CC(C)=O,474 nm
same,absorption maximum,in CC(C)O,493 nm
same,absorption maximum,in CCCCCC,435 nm
same,absorption maximum,in CCCCO,499 nm
same,absorption maximum,in CCCCOC(C)=O,468 nm
same,absorption maximum,in CCCO,499 nm
same,absorption maximum,in CCO,498 nm
same,absorption maximum,in CCOC(=O)c1ccccc1,481 nm
same,absorption maximum,in CCOC(C)=O,464 nm
same,absorption maximum,in CCOCC,448 nm
same,absorption maximum,in CN(C)C=O,486 nm
same,absorption maximum,in CO,500 nm
same,absorption maximum,in CS(C)=O,496 nm
same,absorption maximum,in Cc1ccccc1,475 nm
same,absorption maximum,in ClC(Cl)(Cl)Cl,449 nm
same,absorption maximum,in ClC(Cl)Cl,486 nm
same,absorption maximum,in ClCCl,484 nm
same,absorption maximum,in Clc1ccccc1Cl,488 nm
same,absorption maximum,in S=C=S,489 nm
same,absorption maximum,in c1ccccc1,475 nm
same,absorption maximum,in c1ccncc1,488 nm
CCOC(=O)c1ccc(C2CC(c3cccc4ccccc34)=NN2c2ccc(F)cc2)cc1 (stereo not drawn),absorption maximum,in ClCCl,375 nm
COc1ccc(N2c3cc(OC)ccc3N=c3cc4c(cc32)=Nc2cc(C(C)(C)C)cc(C(C)(C)C)c2O4)cc1,absorption maximum,in CC#N,539 nm
same,absorption maximum,in CCCCCC,562 nm
same,absorption maximum,in CO,558 nm
CC(C)[Si](C#Cc1ccc(C#C[Si](C(C)C)(C(C)C)C(C)C)c2nc3c(ccc4ccccc43)nc12)(C(C)C)C(C)C,absorption maximum,in CCCCCC,411 nm
Cc1ccc(-c2ccccc2)cc1,absorption maximum,in C1CCCCC1,257.4 nm
Cc1cc(O)c(C(=O)/C=C/c2ccc(Cl)cc2)c(=O)o1,absorption maximum,in CC#N,357 nm
same,absorption maximum,in ClCCl,360 nm
CC1=[N+]2C(=C(c3ccc(N4CCOCC4)cc3)c3ccc(C)n3[B-]2(F)F)C=C1,absorption maximum,in C1CCCCC1,509 nm
same,absorption maximum,in C1CCOC1,507 nm
same,absorption maximum,in CC#N,504 nm and 505 nm
same,absorption maximum,in CC(=O)C(C)(C)C,506 nm
same,absorption maximum,in CC(C)=O,505 nm
same,absorption maximum,in CCCCCC,508 nm
same,absorption maximum,in CCOC(C)=O,506 nm
same,absorption maximum,in CO,505 nm
same,absorption maximum,in Cc1ccccc1,511 nm
same,absorption maximum,in ClC(Cl)Cl,511 nm
CCCCCCCCc1ccc(-c2ccc(-c3cc(-c4ccc(-c5ccc(CCCCCCCC)s5)c5nsnc45)c4ccc5c(-c6ccc(-c7ccc(CCCCCCCC)s7)c7nsnc67)cc(-c6ccc(-c7ccc(CCCCCCCC)s7)c7nsnc67)c6ccc3c4c65)c3nsnc23)s1,absorption maximum,in ClC(Cl)Cl,452 nm
CCCCCCc1cc2c(=S)c3cc(CCCCCC)cc4c(=S)c5cc(CCCCCC)cc6c(=S)c(c1)c2n(c34)c65,absorption maximum,in ClCCl,572 nm
CC(C)[Si](C#Cc1cc2c(=S)c3cc(C#C[Si](C(C)C)(C(C)C)C(C)C)cc4c(=S)c5cc(C#C[Si](C(C)C)(C(C)C)C(C)C)cc6c(=S)c(c1)c2n(c34)c65)(C(C)C)C(C)C,absorption maximum,in ClCCl,577 nm
CCC1=C(C)C2=Cc3c4ccccc4c4n3[B-](c3cc[n+](C)cc3)(Oc3ccccc3-4)[N+]2=C1C=Cc1ccc(OC)cc1 (stereo not drawn),absorption maximum,in CO,695 nm
same,absorption maximum,in CS(C)=O,703 nm
